Assay results reported in US20230331691A1, “TREPROSTINIL DERIVATIVE COMPOUNDS AND METHODS OF USING SAME” (CORSAIR PHARMA, INC., priority 2013, published 2023).

How the values were obtained:
Assay type in all cases: in vitro ADME
[1] = Human liver microsomal stability assay (Test 1); conditions: human liver microsomes, 0.5 uM test compound, 37° C., up to 45 minutes, pH 7.4, NADPH generating system; read-out: Test 1 T½
Procedure: (§1) (Test 1) Human liver microsomal stability assay was conducted by incubating 0.5 uM test compounds at 37° C. for up to 45 minutes in 50 mM of potassium phosphate buffer (pH 7.4) containing 0.5 mg of microsomal protein and 50 µL of NADPH generating system (7.8 mg of glucose 6-phosphate, 1.7 mg of NADPH and 6 U of glucose 6-phosphate dehydrogenase per mL in 2% w/v of sodium bicarbonate). At 0, 5, 15, 30 and 45 min., an aliquot was taken, quenched with internal standard containing stop solution. No co-factor controls at 45 minutes were also prepared. After incubation, the samples were analyzed by LC-MS/MS. Peak area ratios of analyte to internal standard were used to calculate the intrinsic clearance. The intrinsic clearance (CLint) was determined from the first order elimination constant by non-linear regression. Formation of the active drug Compound A over the time course was also monitored by LC-MS/MS analysis.

[2] = Human plasma stability assay (Test 2); conditions: heparinated human plasma, 0.5 uM test compound, 37° C., up to 120 minutes; read-out: Test 2 T½
Procedure: (Test 2) Human plasma stability assay was conducted by incubating 0.5 uM test compounds at 37° C. for up to 120 minutes in heparinated human plasma. At 0, 5, 15, 30, 60 and 120 […] min., an aliquot was taken, quenched with internal standard containing stop solution. After incubation, the samples were analyzed by LC-MS/MS. Peak area ratios of analyte to internal standard were used to calculate the half-life. Formation of the active drug Compound A over the time course was also monitored by LC-MS/MS analysis.

[3] = Human skin homogenate stability assay (Test 3); conditions: 0.5 uM test compound, 37° C., up to 45 minutes, pH 7.4, NADPH generating system, read-out: Test 3 T½
Procedure: as §1, with “3)” for “1)”, “skin homogenate” for “liver microsomal”, “conducted in a similar way as the human liver microsomal stability assay,” for “conducted”, “human skin homogenate” for “microsomal”

SMILES | half-life at 0.5 uM [1] | half-life at 0.5 uM [2] | half-life at 0.5 uM [3]
CCCCC[C@H](O)CC[C@@H]1[C@H]2Cc3cccc(OCC(=O)OCC4CC4)c3C[C@H]2C[C@H]1O [Compound 1, [2-Hydroxy-1-(3-hydroxy-octyl)-2,3,3a,4,9,9a-hexahydro-1H-cyclopenta[b]naphthalen-5-yloxy]-acetic acid cyclopropylmethyl ester] | < 15 min | < 15 min | 
CCCCC[C@H](O)CC[C@@H]1[C@H]2Cc3cccc(OCC(=O)OCCCF)c3C[C@H]2C[C@H]1O [Compound 4, [2-Hydroxy-1-(3-hydroxy-octyl)-2,3,3a,4,9,9a-hexahydro-1H-cyclopenta[b]naphthalen-5-yloxy]-acetic acid 3-fluoro-propyl ester] | < 15 min | < 15 min | 
CCCCC[C@H](O)CC[C@@H]1[C@H]2Cc3cccc(OCC(=O)OC4CCOC4)c3C[C@H]2C[C@H]1O (stereo partly shown) [Compound 5, [2-Hydroxy-1-(3-hydroxy-octyl)-2,3,3a,4,9,9a-hexahydro-1H-cyclopenta[b]naphthalen-5-yloxy]-acetic acid tetrahydro-furan-3-yl ester] | < 15 min | < 15 min | 
CCCCC[C@H](O)CC[C@@H]1[C@H]2Cc3cccc(OCC(=O)O[C@H](C)C(=O)OC)c3C[C@H]2C[C@H]1O [Compound 6, 2-{2-[2-Hydroxy-1-(3-hydroxy-octyl)-2,3,3a,4,9,9a-hexahydro-1H-cyclopenta[b]naphthalen-5-yloxy]-acetoxy}-propionic acid methyl ester] | < 15 min | < 15 min | 
CCCCC[C@H](O)CC[C@@H]1[C@H]2Cc3cccc(OCC(=O)NCCN)c3C[C@H]2C[C@H]1O [Compound 8, N-(2-Amino-ethyl)-2-[2-hydroxy-1-(3-hydroxy-octyl)-2,3,3a,4,9,9a-hexahydro-1H-cyclopenta[b]naphthalen-5-yloxy]-acetamide] | 31 to 60 min |  | 
CCCCC[C@H](O)CC[C@@H]1[C@H]2Cc3cccc(OCC(=O)OCCO)c3C[C@H]2C[C@H]1O [Compound 9, [2-Hydroxy-1-(3-hydroxy-octyl)-2,3,3a,4,9,9a-hexahydro-1H-cyclopenta[b]naphthalen-5-yloxy]-acetic acid 2-hydroxy-ethyl ester] | < 15 min |  | 
CCCCC[C@H](O)CC[C@@H]1[C@H]2Cc3cccc(OCC(=O)OCCOC)c3C[C@H]2C[C@H]1O [Compound 10, [2-Hydroxy-1-(3-hydroxy-octyl)-2,3,3a,4,9,9a-hexahydro-1H-cyclopenta[b]naphthalen-5-yloxy]-acetic acid 2-methoxy-ethyl ester] | < 15 min |  | 
CCCCC[C@H](O)CC[C@@H]1[C@H]2Cc3cccc(OCC(=O)NCCCO)c3C[C@H]2C[C@H]1O [Compound 11, 2-[2-Hydroxy-1-(3-hydroxy-octyl)-2,3,3a,4,9,9a-hexahydro-1H-cyclopenta[b]naphthalen-5-yloxy]-N-(3-hydroxy-propyl)-acetamide] | < 15 min | > 60 min | 
CCCCC[C@H](O)CC[C@@H]1[C@H]2Cc3cccc(OCC(=O)NCC(=O)OC)c3C[C@H]2C[C@H]1O [Compound 12, {2-[2-Hydroxy-1-(3-hydroxy-octyl)-2,3,3a,4,9,9a-hexahydro-1H-cyclopenta[b]naphthalen-5-yloxy]-acetylamino}-acetic acid methyl ester] | < 15 min | > 60 min | 
CCCCC[C@H](O)CC[C@@H]1[C@H]2Cc3cccc(OCC(=O)OC)c3C[C@H]2C[C@H]1O [Compound 15, [2-Hydroxy-1-(3-hydroxy-octyl)-2,3,3a,4,9,9a-hexahydro-1H-cyclopenta[b]naphthalen-5-yloxy]-acetic acid methyl ester] | < 15 min | < 15 min | < 15 min

Results, then the compound that gave them:

half-life at 0.5 uM [1] | half-life at 0.5 uM [2] | half-life at 0.5 uM [3] | SMILES
< 15 min | 15 to 30 min | 15 to 30 min | CCCCC[C@H](O)CC[C@@H]1[C@H]2Cc3cccc(OCC(=O)OCC(C)(C)C)c3C[C@H]2C[C@H]1O [Compound 16, [2-Hydroxy-1-(3-hydroxy-octyl)-2,3,3a,4,9,9a-hexahydro-1H-cyclopenta[b]naphthalen-5-yloxy]-acetic acid 2,2-dimethyl-propyl ester]
< 15 min | 31 to 60 min | 15 to 30 min | CCCCC[C@H](O)CC[C@@H]1[C@H]2Cc3cccc(OCC(=O)OC(C)C(C)C)c3C[C@H]2C[C@H]1O (stereo partly shown) [Compound 17, [2-Hydroxy-1-(3-hydroxy-octyl)-2,3,3a,4,9,9a-hexahydro-1H-cyclopenta[b]naphthalen-5-yloxy]-acetic acid 1,2-dimethyl-propyl ester]
< 15 min | > 60 min | > 60 min | CCCCC[C@H](O)CC[C@@H]1[C@H]2Cc3cccc(OCC(=O)OC(C)C(C)(C)C)c3C[C@H]2C[C@H]1O (stereo partly shown) [Compound 18, [2-Hydroxy-1-(3-hydroxy-octyl)-2,3,3a,4,9,9a-hexahydro-1H-cyclopenta[b]naphthalen-5-yloxy]-acetic acid 1,2,2-trimethyl-propyl ester]
< 15 min | 31 to 60 min | 15 to 30 min | CCCCC[C@H](O)CC[C@@H]1[C@H]2Cc3cccc(OCC(=O)OC4CC5CCC4C5)c3C[C@H]2C[C@H]1O (stereo partly shown) [Compound 19, [2-Hydroxy-1-(3-hydroxy-octyl)-2,3,3a,4,9,9a-hexahydro-1H-cyclopenta[b]naphthalen-5-yloxy]-acetic acid bicyclo[2.2.1]hept-2-yl ester]
< 15 min | 31 to 60 min | < 15 min | CCCCC[C@H](O)CC[C@@H]1[C@H]2Cc3cccc(OCC(=O)OC(C)C)c3C[C@H]2C[C@H]1O [Compound 20, [2-Hydroxy-1-(3-hydroxy-octyl)-2,3,3a,4,9,9a-hexahydro-1H-cyclopenta[b]naphthalen-5-yloxy]-acetic acid isopropyl ester]
< 15 min | > 60 min |  | CCCCC[C@H](O)CC[C@@H]1[C@H]2Cc3cccc(OCC(=O)NCC(F)(F)C(F)(F)F)c3C[C@H]2C[C@H]1O [Compound 21, 2-[2-Hydroxy-1-(3-hydroxy-octyl)-2,3,3a,4,9,9a-hexahydro-1 H-cyclopenta[b]naphthalen-5-yloxy]-N-(2,2,3,3,3-pentafluoro-propyl)-acetamide]
< 15 min | > 60 min |  | CCCCC[C@H](O)CC[C@@H]1[C@H]2Cc3cccc(OCC(=O)OC)c3C[C@H]2C[C@H]1OC(=O)CC(C)C [Compound 23, 3-Methyl-butyric acid 1-(3-hydroxy-octyl)-5-methoxycarbonylmethoxy-2,3,3a,4,9,9a-hexahydro-1H-cyclopenta[b]naphthalen-2-yl ester]
< 15 min | > 60 min |  | CCCCC[C@H](O)CC[C@@H]1[C@H]2Cc3cccc(OCC(=O)OC)c3C[C@H]2C[C@H]1OC(=O)C1CC1 [Compound 24, Cyclopropanecarboxylic acid 1-(3-hydroxy-octyl)-5-methoxycarbonylmethoxy-2,3,3a,4,9,9a-hexahydro-1H-cyclopenta[b]naphthalen-2-yl ester]
< 15 min | > 60 min |  | CCCCC[C@H](O)CC[C@@H]1[C@H]2Cc3cccc(OCC(=O)OC)c3C[C@H]2C[C@H]1OC(=O)CCC(=O)OCC [Compound 27, Succinic acid ethyl ester 1-(3-hydroxy-octyl)-5-methoxycarbonylmethoxy-2,3,3a,4,9,9a-hexahydro-1H-cyclopenta[b]naphthalen-2-yl ester]
< 15 min | 15 to 30 min |  | CCCCC[C@H](O)CC[C@@H]1[C@H]2Cc3cccc(OCC(=O)OC(C)(C)C)c3C[C@H]2C[C@H]1O [Compound 28, [2-Hydroxy-1-(3-hydroxy-octyl)-2,3,3a,4,9,9a-hexahydro-1H-cyclopenta[b]naphthalen-5-yloxy]-acetic acid tert-butyl ester]
